Several values for one entry are separate records, joined by “and”; a condition that tells them apart may be missing. Equal values may be shown once.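 Protocol summary: plate cells (96-well), add compound at 5 concentrations, incubate 48 h, interpolate endpoints linearly. The concentration for 50% growth inhibition is given as GI50. TGI is the concentration that stops growth completely.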
Assays:
Experiment in all cases: NCI-60 cell line screen, 48 h
HCT-116 colon = system: HCT-116 colon
PC-3 prostate = system: PC-3 prostate
SF-295 CNS = system: SF-295 CNS
SNB-19 CNS = system: SNB-19 CNS
IGROV1 ovarian = system: IGROV1 ovarian
U251 CNS = system: U251 CNS
OVCAR-3 ovarian = system: OVCAR-3 ovarian
HOP-62 NSCLC = system: HOP-62 NSCLC
UO-31 renal = system: UO-31 renal
EKVX NSCLC = system: EKVX NSCLC

SMILES	GI50 (HCT-116 colon) [µM]	TGI (HCT-116 colon)	GI50 (PC-3 prostate) [µM]	TGI (PC-3 prostate) [µM]	GI50 (SF-295 CNS) [µM]	TGI (SF-295 CNS) [µM]	GI50 (SNB-19 CNS) [µM]	TGI (SNB-19 CNS) [µM]	GI50 (IGROV1 ovarian) [µM]	TGI (IGROV1 ovarian) [µM]	GI50 (U251 CNS) [µM]	TGI (U251 CNS) [µM]	GI50 (OVCAR-3 ovarian) [µM]	TGI (OVCAR-3 ovarian) [µM]	GI50 (HOP-62 NSCLC) [µM]	TGI (HOP-62 NSCLC) [µM]	GI50 (UO-31 renal) [µM]	TGI (UO-31 renal) [µM]	TGI (EKVX NSCLC) [µM]	GI50 (EKVX NSCLC) [µM]
COc1ccc(-c2cc(/C=C3\C(=O)Nc4ccc(Cl)cc43)[nH]n2)cc1	4.13	14.1 µM	4.03	15.9	3.29	12.8	10.4	28	5	17.9	3.16	12.1	3.05	8.42	4.39	15.8	4.02	16.9		
CCC(=O)C(C)C1=Nc2nnc(CCCCCCCc3nnc4n3C(=O)C(C(C)C(=O)CC)=N4)n2C1=O (stereo not drawn)		> 100 µM				> 100		> 100		> 100		> 100		> 100		> 100		> 100	> 100	
CN(CN1C(=O)C2Cc3ccccc3CN2C1=O)c1ccccn1 (stereo not drawn)						> 100		> 100		> 100		> 100		> 100		> 100		> 100		
CCNC(=O)C#CC(=O)NCC	> 10	> 10 µM and 47.7 µM			> 10	> 100	> 10	> 100		> 100	> 10	> 100	> 10	> 100		> 100	> 10	> 100	> 100	> 10
COC1OC(CO)C(O)C(O)C1Br (stereo not drawn)		> 100 µM				> 100		> 100		> 100		> 100		> 100		> 100				
COc1cccc(C(=O)N2CCc3ccccc32)c1OC		> 100 µM				> 100		> 100		> 100		> 100		> 100		> 100		> 100	> 100	
O=C1C[C@@H]2C(COC(=O)c3ccccc3)N(OCc3ccccc3)C[C@@H]2O1 (stereo partly drawn)		> 100 µM						> 100		> 100		> 100		> 100		> 100		> 100	> 100	
N=c1nnc(=O)c2c(s1)-n1ncc(C(=O)O)c1NN2		> 100 µM				> 100		> 100		> 100		> 100		> 100		> 100		> 100	> 100	
CC(=O)OC1CC2C(C)(C)C(=O)C=C[C@]2(C)C2CCC3(C)C(c4ccoc4)C(=O)[C@H]4O[C@]43[C@]12C (stereo partly drawn)		28.7 µM						67.5		78.9		32.9				42.7		32.7	89.2	
Cn1c(=O)nc2n(-c3cccc(F)c3)c3ccccc3nc-2c1=O		77.8 µM				> 100		48.6		62.5		48.9		21.5		> 100		> 100	32.5	
C1CCN(c2nsc(N3CCCCC3)n2)CC1		> 100 µM				> 100		> 100		> 100		> 100				> 100		> 100	> 100	
NC1CCN(c2nc(Nc3cccc(C(F)(F)F)c3)c3c(=O)[nH]ccc3n2)CC1	1.09	2.3 µM	1.78	3.59	1.96	3.59	2	3.59			1.73	3.55			1.76	3.54	1.19	2.62	3.16	1.35
Cc1nc2ccc(Nc3nc(NCCN4CCOCC4)nc(Nc4ccc(F)cc4)n3)cc2n1Cc1ccccc1	2.02	5.43 µM	3.26	16.2	1.49	2.93	3.07	15.2	5.59	46			4.24	20.3	1.88	6.23	1.78	8.2		
Cc1ccc(S(=O)(=O)NC(=O)NC23CC4CC(CC(F)(C4)C2)C3)cc1		> 100 µM						> 100		> 100		> 100		> 100		> 100		> 100	> 100	
O=C(Nc1nc2ccccc2n1Cc1ccccc1)NC12CC3CC(CC(C3)C1)C2		> 100 µM				37		> 100		> 100		> 100		> 100		> 100		> 100	> 100	
Cc1c(C(=O)NCCO)[n+](=O)c2cc(Cl)ccc2n1[O-]		> 100 µM				> 100		> 100		> 100		> 100		> 100		> 100		> 100	> 100	
CC(=O)OCCOCNC(=S)N/N=C(\C)c1cnc2ccccc2n1		> 100 µM				> 100		> 100		> 100		> 100		> 100		> 100		> 100	> 100	
COc1cccc(NC(=O)CC(=O)N2N=C(N(CCC#N)c3ccccc3C)CC2c2ccccc2)c1 (stereo not drawn)		> 100 µM				> 100		> 100		> 100		> 100		> 100		> 100		> 100	> 100	
NC(=O)N/N=C/C(/C=N/NC(N)=O)[N+](=O)[O-]		> 100 µM				> 100		> 100		> 100				> 100		> 100			> 100	
Cc1c(C(=O)c2ccccc2C(=O)O)c2ccccc2n1C		> 100 µM				> 100				> 100		> 100		> 100		> 100		> 100	> 100	
N=C(N=C(N)N)N1CCN(c2ccncc2)CC1	> 1000	> 1000 µM	> 1000	> 1000	> 1000	> 1000	> 1000	> 1000	> 1000	> 1000			> 1000	> 1000	> 1000	> 1000	> 1000	> 1000		
CC(=O)O[C@H]1CC[C@@]2(C)C(=CC[C@H]3C4=CC=C(C(C)=O)[C@@]4(C)CCC32)C1 (stereo partly drawn)		36.9 µM				> 100		> 100		> 100		> 100		> 100		> 100		> 100	> 100	
